Key:
[1] = Metabolic stability in human hepatocytes assessed as intrinsic clearance measured per million cells incubated upto 60 mins by LC-MS/MS analysis; format: ADME, cell-based, Hepatocyte; conditions: read-out: CLH
[2] = Metabolic stability in human hepatocytes assessed as half life measured per million cells incubated upto 60 mins by LC-MS/MS analysis; format: ADME, cell-based, Hepatocyte
[3] = Plasma protein binding in human assessed as unbound fraction by rapid equilibrium dialysis analysis; format: ADME, cell-free
[4] = Ratio of drug concentration in human blood to plasma at 5 uM incubated for 30 mins by LC-MS/MS analysis; format: ADME, cell-free; conditions: whole blood

Compound	hepatocyte CLint [1]	half-life [2]	fraction unbound [3]	blood plasma ratio at 0.5 h, 5 µM [4]
O=C(O)/C=C/C(=O)O.[2H]C([2H])([2H])N(C([2H])([2H])[2H])C([2H])([2H])Cc1c[nH]c2ccccc12	9.3 µL/min/1e6 cells	3.45 h	–	–
CNS(=O)(=O)Cc1ccc2[nH]cc(CCN(C)C)c2c1	–	–	0.68	–
CCN(CC)CCCC(C)Nc1ccnc2cc(Cl)ccc12 (configuration not stated) [CHLOROQUINE]	–	–	–	4.93
O=C(O)/C=C/C(=O)O.[2H]C([2H])([2H])N(CCc1c[nH]c2ccccc12)C([2H])([2H])[2H]	15.2 µL/min/1e6 cells	1.95 h	–	–
O=C(O)Cc1ccccc1Nc1c(Cl)cccc1Cl [DICLOFENAC]	–	–	–	0.63
